The test system of one experiment is Polygonum convolvulus. The experiment can be described thus: Post-emergence action against weeds, greenhouse, visual scoring. The format is in vivo. The note with it: scoring 11 days after application. The protocol:
(§1) Seeds or rhizome pieces of monocotyledonous and dicotyledonous weeds were placed in sandy loam soil in plastic pots, covered with soil and cultivated in a greenhouse under good growth conditions. Three weeks after sowing, the test plants were treated at the 2- to 4-leaf stage. The compounds according to the invention, formulated as wettable powders or as emulsion concentrates, were sprayed onto the green parts of the plants in various dosages at a water application rate of 100 to 800 l/ha (converted). After the test plants had been left to stand in the greenhouse for 10 to 28 days under optimum growth conditions, the effect of the preparations was scored visually in comparison to untreated controls.
0%=no control 100%=complete control

The next experiment concerns Galium aparine. Described as above. The format is in vivo. The note with it: scoring 11 days after application, 0=no control, 100=complete control. Here is the method: as §1
0=no control 100=complete control

As to `CS(=O)(=O)c1cc(C(F)(F)F)ccc1C(=O)c1cnoc1C1CC1` [Compound B3-3, isoxaflutole], the “Polygonum convolvulus Control in %” value in the experiment with Polygonum convolvulus (50 g of ai/ha, 0=no control, 100=complete control) was found to be 25%.

On to `Cc1nn(C)c(O)c1C(=O)c1ccc(C(F)(F)F)cc1S(C)(=O)=O` [Compound B1-6, pyrasulfotole], for which, in the experiment on Polygonum convolvulus (25 g of ai/ha, 0%=no control, 100%=complete control), the “Polygonum convolvulus Control in %” value was 20%.

For `COCc1cnc(C2=NC(C)(C(C)C)C(=O)N2)c(C(=O)O)c1` (centres unmarked) [Compound B4-2, imazamox], the “Galium aparine Control in %” value in the experiment with Galium aparine (10 g of ai/ha) is 75%.

For `CCN(C(=O)n1nnn(-c2ccccc2Cl)c1=O)C1CCCCC1` [Compound B8-1, fentrazamide], the “Polygonum convolvulus Control in %” value with Polygonum convolvulus (250 g of ai/ha, 0%=no control, 100%=complete control) amounted to 20%.

As for `CCc1cc(C)cc(CC)c1-c1c(OC(=O)C(C)(C)C)n2n(c1=O)CCOCC2` [Compound B9-1, pinoxaden], in the experiment with Polygonum convolvulus (15 g of ai/ha, 0=no control, 100=complete control), the “Polygonum convolvulus Control in %” value is 20%.

As to “sodium salt of 2-iodo-N-[(4-methoxy-6-methyl-1,3,5-triazin-2-yl)carbamoyl]benzenesulfonamide [Compound A-2]”, in the experiment with Polygonum convolvulus (2.5 g of ai/ha, 0%=no control, 100%=complete control), the “Polygonum convolvulus Control in %” value is reported as 10%. In addition, the “Galium aparine Control in %” value in the experiment with Galium aparine (2.5 g of ai/ha) is recorded as 0%.

`CCOC(=O)COc1cc(-c2nn(C)c(OC(F)F)c2Cl)c(F)cc1Cl` [Compound B2-1, pyraflufen-ethyl]: in the experiment with Galium aparine (2 g of ai/ha), the “Galium aparine Control in %” value is 23%.

The record behind these values is patent publication US20100323894A1, “HERBICIDAL COMBINATION” (Bayer CropScience AG, priority 2007, published 2010).
